Patent publication US7803374B2, “Targeted atherosclerosis treatment” (Barnes-Jewish Hospital, priority 2004, dated 2010)
Like-named read-outs stand apart in the source and are kept apart here.

B1: endostatin: anti-angiogenic agent (protein, UniProt P39060 1572-1754, looked up)
Endostatin: HSHRDFQPVLHLVALNSPLSGGMRGIRGADFQCFQQARAVGLAGTFRAFLSSRLQDLYSIVRRADRAAVPIVNLKDELLFPSWEALFSGSEGPLKPGARIFSFDGKDVLRHPTWPQKSVWHGSDPNGRRLTESYCETWRTEAPSATGQASSLLGGRLLGQSAASCHHAYIVLCIENSFMTASK
modifications: Endostatin
notes: anti-angiogenic agent

How the values were obtained:
[1] = In vitro dissolution: release of fumagillin from nanoparticles by dialysis; format: physicochemical; conditions: generally, due to hydrophobic nature
Description: Fumagillin nanoparticle emulsions (250 μl) were dialyzed in 60,000 MW cutoff dialysis tubing against 3.5 ml of releasing medium (0.9% NaCl, 0.2 mg/ml human serum albumin and 0.05% sodium azide) and continuously agitated at 37° C. The releasing medium was replaced daily and analyzed for released fumagillin concentration. Fumagillin was analyzed by reverse-phase HPLC (Waters Corporation). Chromatography was performed using a Waters Novapak C18, 60 Å, 4 μm reversed-phase column (3.9×150 mm) with an isocratic 50% acetonitrile/0.05% of phosphoric acid mobile phase (1 ml/min at ambient temperature).

Apo E−/− mice = conditions: cited from earlier work; for foam cell deposition or fibromuscular lesion development: early atherogenesis; for effectiveness in later treatment: later periods of treatment (32 to 48 weeks)
[2] = high dose; cited from earlier work
[3] = treated for 4 months (20 to 36 weeks)

| Molecule | fumagillin released (general statement) [1] [%] | intimal vessels and atheroma expansion (Apo E−/− mice; 30 mg per kg every other day for 13 weeks) | foam cell deposition or fibromuscular lesion development (Apo E−/− mice) | effectiveness in later treatment (Apo E−/− mice) | intimal vessels and atheroma expansion (Apo E−/− mice; [3]) | side effects [2] |
| --- | --- | --- | --- | --- | --- | --- |
| CO[C@@H]1[C@H](OC(=O)/C=C/C=C/C=C/C=C/C(=O)O)CC[C@]2(CO2)[C@H]1[C@@]1(C)O[C@@H]1CC=C(C)C [fumagillin] | < 10 | – | – | – | – | – |
| CO[C@@H]1[C@H](OC(=O)NC(=O)CCl)CC[C@]2(CO2)[C@H]1[C@@]1(C)O[C@@H]1CC=C(C)C [TNP-470] | – | reduction in intimal vessels and diminished atheroma expansion | Neither endostatin nor TNP-470 altered | less effective | reduced number of intimal vessels and diminished atheroma expansion | serious side effects such as neurocognitive toxicity |
| B1 | – | – | Neither endostatin nor TNP-470 altered | less effective | reduced number of intimal vessels and diminished atheroma expansion | – |
